The record followed here is BindingDB's records for doi:10.1016/j.bmcl.2010.09.011 (The University of Tokyo, 2010).

Some results are limits rather than exact numbers.

Test [1] is described as follows: Vitamin-D activity at VDR receptor in human HL60 cells assessed as induction of cell differentiation by NBT reduction assay.
Test [2] can be described thus: Antiandrogen activity against androgen receptor in androgen-dependent mouse SC3 cells assessed as inhibition of testosterone-induced cell proliferation by WST1 assay. On the technique in general: Tetrazolium dyes change colour on reduction, which living cells bring about.

The EC50 is the concentration that produces a half-maximal response. In general, IC50 refers to the concentration that inhibits the measured activity by half. In the case of `CCC(CC)(c1ccc(OCC(=O)C23CC4CC(CC(C4)C2)C3)c(C)c1)c1ccc(OC[C@@H](O)CO)c(C)c1`, the EC50 in test [1] is above 30 µM. Also, the IC50 in test [2] was above 30 µM. Turning to `CCC(CC)(c1ccc(OCC(O)C23CC4CC(CC(C4)C2)C3)c(C)c1)c1ccc(OC[C@@H](O)CO)c(C)c1` (stereo not given in full), in test [1], the EC50 came out at 22 µM. The IC50 in test [2] was above 10 µM. On the same counts, the results for `CCC(CC)(c1ccc(OC[C@@H](O)CO)c(C)c1)c1ccc(O[C@@H]2CN(Cc3ccccc3)C[C@@H]2O)c(C)c1` [(2S)-3-(4-(3-(4-(1-benzyl-4-hydroxypyrrolidin-3-yloxy)-3-methylphenyl)pentan-3-yl)-2-methylphenoxy)propane-1,2-diol] are above 30 µM and above 10 µM.

As to `CCC(CC)(c1ccc(OCC(O)C(C)(C)Cc2ccc3ccccc3c2)c(C)c1)c1ccc(OC[C@@H](O)CO)c(C)c1` (stereo partly drawn) [(2S)-3-(4-(3-(4-(2-hydroxy-3,3-dimethyl-4-(naphthalen-2-yl)butoxy)-3-methylphenyl)pentan-3-yl)-2-methylphenoxy)propane-1,2-diol], in test [1], the EC50 was above 30 µM. Moreover, the IC50 in test [2] was above 10 µM.

For the compound `CCC(CC)(c1ccc(OCC(O)C(C)(C)Cc2ccccc2)c(C)c1)c1ccc(OC[C@@H](O)CO)c(C)c1` (stereo partly drawn) [(2S)-3-(4-(3-(4-(2-hydroxy-3,3-dimethyl-4-phenylbutoxy)-3-methylphenyl)pentan-3-yl)-2-methylphenoxy)propane-1,2-diol], the EC50 in test [1] was determined as 11 µM. Moreover, the IC50 in test [2] came to 1.7 µM.

Regarding `CCC(CC)(c1ccc(OCC(O)C(C)(C)CCc2ccccc2)c(C)c1)c1ccc(OC[C@@H](O)CO)c(C)c1` (stereo partly drawn) [(2S)-3-(4-(3-(4-(2-hydroxy-3,3-dimethyl-5-phenylpentyloxy)-3-methylphenyl)pentan-3-yl)-2-methylphenoxy)propane-1,2-diol], the EC50 in test [1] was 7.1 µM. The IC50 in test [2] is 0.88 µM. The corresponding values for `CCC(CC)(c1ccc(OCC(O)C(C)(C)CCCc2ccccc2)c(C)c1)c1ccc(OC[C@@H](O)CO)c(C)c1` (stereo partly drawn) [(2S)-3-(4-(3-(4-(2-hydroxy-3,3-dimethyl-6-phenylhexyloxy)-3-methylphenyl)pentan-3-yl)-2-methylphenoxy)propane-1,2-diol] are 3.6 µM and 0.13 µM. The corresponding values for `CCC(CC)(c1ccc(OCC(O)C(C)(C)CCCCc2ccccc2)c(C)c1)c1ccc(OC[C@@H](O)CO)c(C)c1` (stereo partly drawn) [(2S)-3-(4-(3-(4-(2-hydroxy-3,3-dimethyl-7-phenylheptyloxy)-3-methylphenyl)pentan-3-yl)-2-methylphenoxy)propane-1,2-diol] are above 30 µM and above 10 µM. Turning to `CCC(CC)(c1ccc(OC[C@@H](O)CO)c(C)c1)c1ccc(OC[C@H](O)C(C)(C)C)c(C)c1` [(2S)-3-{4-[1-ethyl-1-(4-{[(2R)-2-hydroxy-3,3-dimethylbutyl]oxy}-3-methylphenyl)propyl]-2-methylphenoxy}propane-1,2-diol], the IC50 in test [2] amounted to 0.003 µM. On the same count and under the same terms, for `CCC(CC)(c1ccc(OCC(=O)C(C)(C)C)c(C)c1)c1ccc(OC[C@H](O)CO)c(C)c1` [(R)-1-(4-(3-(4-(2,3-dihydroxypropoxy)-3-methylphenyl)pentan-3-yl)-2-methylphenoxy)-3,3-dimethylbutan-2-one] the value was 0.015 µM. On the same count and under the same terms, for `CCC(CC)(c1ccc(OC[C@H](O)CO)c(C)c1)c1ccc(OC[C@H](O)C(C)(C)C)c(C)c1` [(R)-3-(4-(3-(4-((R)-2-hydroxy-3,3-dimethylbutoxy)-3-methylphenyl)pentan-3-yl)-2-methylphenoxy)propane-1,2-diol] the value was 0.014 µM; for `CCC(CC)(c1ccc(OC[C@H](O)CO)c(C)c1)c1ccc(OC[C@@H](O)C(C)(C)C)c(C)c1` [(R)-3-(4-(3-(4-((S)-2-hydroxy-3,3-dimethylbutoxy)-3-methylphenyl)pentan-3-yl)-2-methylphenoxy)propane-1,2-diol], 0.068 µM. With `CCC(CC)(c1ccc(OCC(=O)C(C)(C)Cc2ccc3ccccc3c2)c(C)c1)c1ccc(OC[C@@H](O)CO)c(C)c1` [(S)-1-(4-(3-(4-(2,3-dihydroxypropoxy)-3-methylphenyl)pentan-3-yl)-2-methylphenoxy)-3,3-dimethyl-4-(naphthalen-2-yl)butan-2-one], the EC50 in test [1] is above 30 µM. Also, in test [2], the IC50 is above 30 µM.

For the compound `CCC(CC)(c1ccc(OCC(=O)C(C)(C)Cc2ccccc2)c(C)c1)c1ccc(OC[C@@H](O)CO)c(C)c1` [(S)-1-(4-(3-(4-(2,3-dihydroxypropoxy)-3-methylphenyl)pentan-3-yl)-2-methylphenoxy)-3,3-dimethyl-4-phenylbutan-2-one], the EC50 in test [1] came to 21 µM. Further, the IC50 in test [2] is above 10 µM.

For `CCC(CC)(c1ccc(OCC(=O)C(C)(C)CCc2ccccc2)c(C)c1)c1ccc(OC[C@@H](O)CO)c(C)c1` [(S)-1-(4-(3-(4-(2,3-dihydroxypropoxy)-3-methylphenyl)pentan-3-yl)-2-methylphenoxy)-3,3-dimethyl-5-phenylpentan-2-one], in test [1], the EC50 was determined as 23 µM. The IC50 in test [2] worked out at 1.1 µM. Regarding `CCC(CC)(c1ccc(OCC(=O)C(C)(C)CCCc2ccccc2)c(C)c1)c1ccc(OC[C@@H](O)CO)c(C)c1` [(S)-1-(4-(3-(4-(2,3-dihydroxypropoxy)-3-methylphenyl)pentan-3-yl)-2-methylphenoxy)-3,3-dimethyl-6-phenylhexan-2-one], the EC50 in test [1] is above 30 µM. In addition, in test [2], the IC50 turned out to be 9.8 µM. On to `CCC(CC)(c1ccc(OCC(=O)C(C)(C)CCCCc2ccccc2)c(C)c1)c1ccc(OC[C@@H](O)CO)c(C)c1` [(S)-1-(4-(3-(4-(2,3-dihydroxypropoxy)-3-methylphenyl)pentan-3-yl)-2-methylphenoxy)-3,3-dimethyl-7-phenylheptan-2-one], for which the EC50 in test [1] was above 30 µM. Moreover, the IC50 in test [2] was above 30 µM. On to `CCC(CC)(c1ccc(OCC(=O)C(C)(C)C)c(C)c1)c1ccc(OC[C@@H](O)CO)c(C)c1` [(S)-1-(4-(3-(4-(2,3-dihydroxypropoxy)-3-methylphenyl)pentan-3-yl)-2-methylphenoxy)-3,3-dimethylbutan-2-one], for which, in test [2], the IC50 came to 0.032 µM. On the same count and under the same terms, for `CCC(CC)(c1ccc(OC[C@@H](O)CO)c(C)c1)c1ccc(OC[C@@H](O)C(C)(C)C)c(C)c1` [(S)-3-(4-(3-(4-((S)-2-hydroxy-3,3-dimethylbutoxy)-3-methylphenyl)pentan-3-yl)-2-methylphenoxy)propane-1,2-diol] the value was 0.013 µM. For `CCC(CC)(c1ccc(OCC(=O)C(C)(C)C)c(C)c1)c1ccc(OCC(O)CO)c(C)c1` (stereo not given) [LG190178], in test [1], the EC50 stood at 0.09 µM.

Regarding `CCC(CC)(c1ccc(OC[C@@H](O)CO)c(C)c1)c1ccc(O[C@@H]2CN(C(=O)OCc3ccccc3)C[C@@H]2O)c(C)c1` [benzyl 3-(4-(3-(4-((S)-2,3-dihydroxypropoxy)-3-methylphenyl)pentan-3-yl)-2-methylphenoxy)-4-hydroxypyrrolidine-1-carboxylate], in test [1], the EC50 was above 30 µM. Moreover, the IC50 in test [2] was above 30 µM.
